The results in this text go back to the kinase profiling compilation of Christmann-Franck et al. (2016).

In general, residual activity refers to the signal under treatment as a percentage of the control signal.

NUAK1 (human), sequence (O60285 whole entry, looked up): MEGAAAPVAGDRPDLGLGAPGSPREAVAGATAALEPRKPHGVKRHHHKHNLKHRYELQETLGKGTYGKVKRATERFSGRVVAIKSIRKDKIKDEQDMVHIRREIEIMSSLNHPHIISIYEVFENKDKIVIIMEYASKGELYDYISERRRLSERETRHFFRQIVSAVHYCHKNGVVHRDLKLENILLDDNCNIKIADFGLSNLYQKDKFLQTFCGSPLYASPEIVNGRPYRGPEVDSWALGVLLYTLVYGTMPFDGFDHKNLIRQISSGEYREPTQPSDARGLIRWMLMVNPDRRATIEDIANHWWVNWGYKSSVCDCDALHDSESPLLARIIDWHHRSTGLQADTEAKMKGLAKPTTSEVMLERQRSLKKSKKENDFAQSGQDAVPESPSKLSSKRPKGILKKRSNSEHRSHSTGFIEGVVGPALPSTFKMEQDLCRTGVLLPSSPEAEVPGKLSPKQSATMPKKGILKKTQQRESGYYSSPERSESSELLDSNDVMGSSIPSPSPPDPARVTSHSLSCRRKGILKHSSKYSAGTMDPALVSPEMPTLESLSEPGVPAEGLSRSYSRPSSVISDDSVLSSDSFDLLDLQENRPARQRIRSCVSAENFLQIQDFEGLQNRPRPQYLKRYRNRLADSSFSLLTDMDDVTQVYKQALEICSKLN
PRKX (human), sequence (P51817 whole entry, looked up): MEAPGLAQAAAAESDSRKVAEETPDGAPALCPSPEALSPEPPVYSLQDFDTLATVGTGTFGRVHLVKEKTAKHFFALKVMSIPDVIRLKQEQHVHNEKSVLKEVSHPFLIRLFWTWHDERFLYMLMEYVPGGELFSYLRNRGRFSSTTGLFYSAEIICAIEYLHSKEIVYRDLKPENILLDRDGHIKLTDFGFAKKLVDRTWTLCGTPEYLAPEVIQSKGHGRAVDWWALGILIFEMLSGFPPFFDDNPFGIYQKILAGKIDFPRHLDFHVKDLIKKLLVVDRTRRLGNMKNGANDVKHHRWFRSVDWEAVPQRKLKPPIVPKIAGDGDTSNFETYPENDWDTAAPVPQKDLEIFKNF
STK3 (human), sequence (Q13188 whole entry, looked up): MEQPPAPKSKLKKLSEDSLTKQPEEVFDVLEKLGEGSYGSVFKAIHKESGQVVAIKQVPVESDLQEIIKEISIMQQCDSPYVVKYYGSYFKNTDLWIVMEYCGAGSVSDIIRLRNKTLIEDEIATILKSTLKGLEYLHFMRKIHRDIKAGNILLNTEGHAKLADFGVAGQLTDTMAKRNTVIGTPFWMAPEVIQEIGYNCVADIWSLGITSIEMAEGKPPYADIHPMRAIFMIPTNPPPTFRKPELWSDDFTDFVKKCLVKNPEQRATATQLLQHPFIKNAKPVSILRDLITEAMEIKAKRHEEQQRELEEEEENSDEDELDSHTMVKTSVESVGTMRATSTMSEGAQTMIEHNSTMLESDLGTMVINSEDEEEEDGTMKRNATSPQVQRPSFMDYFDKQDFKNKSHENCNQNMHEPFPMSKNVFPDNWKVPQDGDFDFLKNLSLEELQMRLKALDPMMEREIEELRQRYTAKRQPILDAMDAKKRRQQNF

One experiment concerns the target NEK11 (human) (UniProt Q8NG66). Nature of the experiment: radiometric filter-binding kinase assay, Kinase HotSpot. Particulars: compound 0.5 µM; ATP 10 µM.
For `CC(=O)O/N=C1\C(=C2\C(=O)Nc3cc(Br)ccc32)Nc2ccccc21`, the residual activity came to 110%.
For `O=C(O)/C=C/c1cc(Br)c(Br)c(Br)c1Br`, the residual activity stood at 101%.
As for `Cn1cnc2cc3c(Nc4cccc(Br)c4)ncnc3cc21`, the residual activity stood at 101%.

The target in the next experiment is NEK2 (human) (UniProt P51955). The description is as above. Particulars: compound 0.5 µM; ATP 10 µM.
NEK2 (human), sequence (P51955 whole entry, looked up): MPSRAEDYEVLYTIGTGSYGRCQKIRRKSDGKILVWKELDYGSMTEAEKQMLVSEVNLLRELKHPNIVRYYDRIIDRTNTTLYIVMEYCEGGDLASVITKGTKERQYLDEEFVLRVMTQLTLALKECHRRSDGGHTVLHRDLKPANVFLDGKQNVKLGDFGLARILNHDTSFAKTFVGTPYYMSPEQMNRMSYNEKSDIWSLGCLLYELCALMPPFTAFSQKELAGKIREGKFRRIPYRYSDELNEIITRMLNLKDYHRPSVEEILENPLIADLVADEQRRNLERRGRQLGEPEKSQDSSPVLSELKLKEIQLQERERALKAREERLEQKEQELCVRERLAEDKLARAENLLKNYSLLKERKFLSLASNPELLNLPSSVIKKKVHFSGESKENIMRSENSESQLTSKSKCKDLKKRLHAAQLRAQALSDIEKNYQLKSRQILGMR
In the case of `CC(=O)O/N=C1\C(=C2\C(=O)Nc3cc(Br)ccc32)Nc2ccccc21`, the residual activity worked out at 73.9%.
`O=C(O)/C=C/c1cc(Br)c(Br)c(Br)c1Br`: the residual activity stood at 92%.
The same measure, in the same setting: the value for `Cn1cnc2cc3c(Nc4cccc(Br)c4)ncnc3cc21` was 103%.

The next experiment addresses NEK4 (human) (UniProt P51957). Described as above. The following applies: compound 0.5 µM; ATP 10 µM.
As to `CC(=O)O/N=C1\C(=C2\C(=O)Nc3cc(Br)ccc32)Nc2ccccc21`, the residual activity was 85.6%.
With `O=C(O)/C=C/c1cc(Br)c(Br)c(Br)c1Br`, the residual activity is 54.6%.
Still for that read-out and setting: the value for `Cn1cnc2cc3c(Nc4cccc(Br)c4)ncnc3cc21` was 96.8%.

The target of another experiment is NTRK3 (human) (UniProt Q16288). Described as above. Particulars: compound 0.5 µM; ATP 10 µM.
As to `CC(=O)O/N=C1\C(=C2\C(=O)Nc3cc(Br)ccc32)Nc2ccccc21`, the residual activity came out at 15.1%.
Consider `O=C(O)/C=C/c1cc(Br)c(Br)c(Br)c1Br`, for which the residual activity worked out at 90.6%.
The same measure, in the same setting: the same measure for `Cn1cnc2cc3c(Nc4cccc(Br)c4)ncnc3cc21`: 81.4%.

Another experiment addresses NUAK1 (human) (UniProt O60285). Described as above. Particulars: compound 0.5 µM; ATP 10 µM.
As to `CC(=O)O/N=C1\C(=C2\C(=O)Nc3cc(Br)ccc32)Nc2ccccc21`, the residual activity was found to be 49.4%.
The same measure, in the same setting: the same measure for `O=C(O)/C=C/c1cc(Br)c(Br)c(Br)c1Br`: 87.6%.
Regarding `Cn1cnc2cc3c(Nc4cccc(Br)c4)ncnc3cc21`, the residual activity was determined as 90.5%.

Another experiment concerns the target NUAK2 (human) (UniProt Q9H093). Described as above. Particulars: compound 0.5 µM; ATP 10 µM.
Take `CC(=O)O/N=C1\C(=C2\C(=O)Nc3cc(Br)ccc32)Nc2ccccc21`: the residual activity came to 85.2%.
Take `O=C(O)/C=C/c1cc(Br)c(Br)c(Br)c1Br`: the residual activity is 98.9%.
Still for that read-out and setting: the same measure for `Cn1cnc2cc3c(Nc4cccc(Br)c4)ncnc3cc21`: 102%.

A further experiment addresses PAK7 (human) (UniProt Q9P286). The description is as above. The following applies: compound 0.5 µM; ATP 10 µM.
For `CC(=O)O/N=C1\C(=C2\C(=O)Nc3cc(Br)ccc32)Nc2ccccc21`, the residual activity worked out at 89.1%.
Same read-out and setting: the same measure for `O=C(O)/C=C/c1cc(Br)c(Br)c(Br)c1Br`: 90.6%.
The same measure, in the same setting: the same measure for `Cn1cnc2cc3c(Nc4cccc(Br)c4)ncnc3cc21`: 86.1%.

The target of the next experiment is PIM1 (human) (UniProt P11309). The description is as above. Particulars: compound 0.5 µM; ATP 10 µM.
PIM1 (human), sequence (P11309 whole entry, looked up): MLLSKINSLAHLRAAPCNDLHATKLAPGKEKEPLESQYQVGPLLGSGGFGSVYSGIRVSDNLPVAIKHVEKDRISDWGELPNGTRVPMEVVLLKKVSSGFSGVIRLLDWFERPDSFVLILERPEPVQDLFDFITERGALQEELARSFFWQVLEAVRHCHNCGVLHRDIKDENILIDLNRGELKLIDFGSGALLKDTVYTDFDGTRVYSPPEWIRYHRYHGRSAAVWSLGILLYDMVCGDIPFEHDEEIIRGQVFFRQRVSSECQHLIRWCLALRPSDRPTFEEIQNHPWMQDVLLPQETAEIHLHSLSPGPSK
For `CC(=O)O/N=C1\C(=C2\C(=O)Nc3cc(Br)ccc32)Nc2ccccc21`, the residual activity is 79.8%.
For `O=C(O)/C=C/c1cc(Br)c(Br)c(Br)c1Br`, the residual activity is 16.2%.
Turning to `Cn1cnc2cc3c(Nc4cccc(Br)c4)ncnc3cc21`, the residual activity worked out at 73.8%.

The target in a further experiment is PRKCZ (human) (UniProt Q05513). The description is as above. Particulars: compound 0.5 µM; ATP 10 µM.
PRKCZ (human), sequence (Q05513 whole entry, looked up): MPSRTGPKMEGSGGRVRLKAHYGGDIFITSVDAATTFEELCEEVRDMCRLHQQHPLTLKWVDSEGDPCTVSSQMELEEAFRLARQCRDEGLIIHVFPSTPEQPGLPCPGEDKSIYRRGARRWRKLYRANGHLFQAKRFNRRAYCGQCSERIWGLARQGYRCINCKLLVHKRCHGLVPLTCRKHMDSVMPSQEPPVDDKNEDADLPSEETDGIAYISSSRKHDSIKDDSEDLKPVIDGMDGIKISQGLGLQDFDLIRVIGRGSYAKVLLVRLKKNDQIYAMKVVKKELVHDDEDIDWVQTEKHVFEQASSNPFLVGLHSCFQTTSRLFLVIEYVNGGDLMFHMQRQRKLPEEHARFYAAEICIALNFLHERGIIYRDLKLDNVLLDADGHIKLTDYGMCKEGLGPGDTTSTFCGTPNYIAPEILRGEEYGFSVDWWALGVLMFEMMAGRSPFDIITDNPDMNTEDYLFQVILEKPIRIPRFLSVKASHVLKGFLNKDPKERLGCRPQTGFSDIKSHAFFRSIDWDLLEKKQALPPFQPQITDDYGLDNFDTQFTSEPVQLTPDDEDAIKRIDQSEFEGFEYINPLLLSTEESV
With `CC(=O)O/N=C1\C(=C2\C(=O)Nc3cc(Br)ccc32)Nc2ccccc21`, the residual activity is 92.2%.
For the compound `O=C(O)/C=C/c1cc(Br)c(Br)c(Br)c1Br`, the residual activity was found to be 89.2%.
In the case of `Cn1cnc2cc3c(Nc4cccc(Br)c4)ncnc3cc21`, the residual activity was 102%.

A further experiment has as its target PRKX (human) (UniProt P51817). Described as above. The following applies: compound 0.5 µM; ATP 10 µM.
Regarding `CC(=O)O/N=C1\C(=C2\C(=O)Nc3cc(Br)ccc32)Nc2ccccc21`, the residual activity stood at 99.9%.
For `O=C(O)/C=C/c1cc(Br)c(Br)c(Br)c1Br`, the residual activity was 96%.
For `Cn1cnc2cc3c(Nc4cccc(Br)c4)ncnc3cc21`, the residual activity is 101%.

The target in a further experiment is PTK6 (human) (UniProt Q13882). The description is as above. The following applies: compound 0.5 µM; ATP 10 µM.
Regarding `CC(=O)O/N=C1\C(=C2\C(=O)Nc3cc(Br)ccc32)Nc2ccccc21`, the residual activity was found to be 91.2%.
Regarding `O=C(O)/C=C/c1cc(Br)c(Br)c(Br)c1Br`, the residual activity stood at 95%.
On to `Cn1cnc2cc3c(Nc4cccc(Br)c4)ncnc3cc21`, for which the residual activity stood at 54%.

Another experiment deals with RET (human) (UniProt P07949). The experiment is described as above. Particulars: compound 0.5 µM; ATP 10 µM.
On to `CC(=O)O/N=C1\C(=C2\C(=O)Nc3cc(Br)ccc32)Nc2ccccc21`, for which the residual activity came out at 6.58%.
Consider `O=C(O)/C=C/c1cc(Br)c(Br)c(Br)c1Br`, for which the residual activity came to 76.4%.
With `Cn1cnc2cc3c(Nc4cccc(Br)c4)ncnc3cc21`, the residual activity worked out at 54.4%.

The target of the next experiment is ROCK1 (human) (UniProt Q13464). Described as above. The following applies: compound 0.5 µM; ATP 10 µM.
Regarding `CC(=O)O/N=C1\C(=C2\C(=O)Nc3cc(Br)ccc32)Nc2ccccc21`, the residual activity is 94.6%.
Take `O=C(O)/C=C/c1cc(Br)c(Br)c(Br)c1Br`: the residual activity turned out to be 97.6%.
Take `Cn1cnc2cc3c(Nc4cccc(Br)c4)ncnc3cc21`: the residual activity is 98.6%.

The next experiment addresses RPS6KB1 (human) (UniProt P23443). The description is as above. The following applies: compound 0.5 µM; ATP 10 µM.
For `CC(=O)O/N=C1\C(=C2\C(=O)Nc3cc(Br)ccc32)Nc2ccccc21`, the residual activity was 95.4%.
As for `O=C(O)/C=C/c1cc(Br)c(Br)c(Br)c1Br`, the residual activity was found to be 91.4%.
On to `Cn1cnc2cc3c(Nc4cccc(Br)c4)ncnc3cc21`, for which the residual activity worked out at 100%.

The target of the next experiment is SGK3 (human) (UniProt Q96BR1). The experiment is described as above. Particulars: compound 0.5 µM; ATP 10 µM.
SGK3 (human), sequence (Q96BR1 whole entry, looked up): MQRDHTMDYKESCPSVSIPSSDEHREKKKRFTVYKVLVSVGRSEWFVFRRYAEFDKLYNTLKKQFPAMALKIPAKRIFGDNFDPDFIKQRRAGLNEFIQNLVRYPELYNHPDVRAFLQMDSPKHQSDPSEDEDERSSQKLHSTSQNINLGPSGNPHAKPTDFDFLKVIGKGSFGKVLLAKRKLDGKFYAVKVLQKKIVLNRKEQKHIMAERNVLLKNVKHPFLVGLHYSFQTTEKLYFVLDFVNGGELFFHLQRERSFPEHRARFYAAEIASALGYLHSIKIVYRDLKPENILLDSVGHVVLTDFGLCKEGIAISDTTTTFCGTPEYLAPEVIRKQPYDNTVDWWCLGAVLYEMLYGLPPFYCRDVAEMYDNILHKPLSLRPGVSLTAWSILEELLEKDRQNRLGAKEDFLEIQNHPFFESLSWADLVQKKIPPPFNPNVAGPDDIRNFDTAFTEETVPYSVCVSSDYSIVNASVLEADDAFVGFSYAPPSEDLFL
In the case of `CC(=O)O/N=C1\C(=C2\C(=O)Nc3cc(Br)ccc32)Nc2ccccc21`, the residual activity came out at 100%.
As for `O=C(O)/C=C/c1cc(Br)c(Br)c(Br)c1Br`, the residual activity is 85.7%.
For `Cn1cnc2cc3c(Nc4cccc(Br)c4)ncnc3cc21`, the residual activity was 107%.

For another experiment, the target named is SRPK2 (human) (UniProt P78362). The description is as above. The following applies: compound 0.5 µM; ATP 10 µM.
Take `CC(=O)O/N=C1\C(=C2\C(=O)Nc3cc(Br)ccc32)Nc2ccccc21`: the residual activity came out at 96.6%.
For `O=C(O)/C=C/c1cc(Br)c(Br)c(Br)c1Br`, the residual activity stood at 62%.
On to `Cn1cnc2cc3c(Nc4cccc(Br)c4)ncnc3cc21`, for which the residual activity was 97.1%.

In a further experiment the target is SRPK3 (human) (UniProt Q9UPE1). The experiment is described as above. The following applies: compound 0.5 µM; ATP 10 µM.
SRPK3 (human), sequence (Q9UPE1 whole entry, looked up): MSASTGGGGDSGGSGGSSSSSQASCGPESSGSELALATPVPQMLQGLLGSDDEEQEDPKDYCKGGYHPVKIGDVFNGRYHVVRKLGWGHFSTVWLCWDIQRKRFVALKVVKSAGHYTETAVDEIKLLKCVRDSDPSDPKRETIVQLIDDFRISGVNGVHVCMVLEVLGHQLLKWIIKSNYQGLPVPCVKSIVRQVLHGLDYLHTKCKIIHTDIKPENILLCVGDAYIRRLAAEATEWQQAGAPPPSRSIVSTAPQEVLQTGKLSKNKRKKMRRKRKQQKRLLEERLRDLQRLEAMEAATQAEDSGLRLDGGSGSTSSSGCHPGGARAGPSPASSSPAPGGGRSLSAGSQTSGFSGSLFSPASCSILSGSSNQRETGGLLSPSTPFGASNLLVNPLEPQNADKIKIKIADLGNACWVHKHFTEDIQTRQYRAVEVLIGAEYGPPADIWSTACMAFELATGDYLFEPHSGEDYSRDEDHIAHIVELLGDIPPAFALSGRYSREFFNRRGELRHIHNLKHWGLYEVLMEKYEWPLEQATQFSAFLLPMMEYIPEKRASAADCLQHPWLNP
With `CC(=O)O/N=C1\C(=C2\C(=O)Nc3cc(Br)ccc32)Nc2ccccc21`, the residual activity was 93.9%.
For `O=C(O)/C=C/c1cc(Br)c(Br)c(Br)c1Br`, the residual activity was 66.9%.
For the compound `Cn1cnc2cc3c(Nc4cccc(Br)c4)ncnc3cc21`, the residual activity stood at 94.9%.

A further experiment deals with STK10 (human) (UniProt O94804). Described as above. Particulars: compound 0.5 µM; ATP 10 µM.
STK10 (human), sequence (O94804 whole entry, looked up): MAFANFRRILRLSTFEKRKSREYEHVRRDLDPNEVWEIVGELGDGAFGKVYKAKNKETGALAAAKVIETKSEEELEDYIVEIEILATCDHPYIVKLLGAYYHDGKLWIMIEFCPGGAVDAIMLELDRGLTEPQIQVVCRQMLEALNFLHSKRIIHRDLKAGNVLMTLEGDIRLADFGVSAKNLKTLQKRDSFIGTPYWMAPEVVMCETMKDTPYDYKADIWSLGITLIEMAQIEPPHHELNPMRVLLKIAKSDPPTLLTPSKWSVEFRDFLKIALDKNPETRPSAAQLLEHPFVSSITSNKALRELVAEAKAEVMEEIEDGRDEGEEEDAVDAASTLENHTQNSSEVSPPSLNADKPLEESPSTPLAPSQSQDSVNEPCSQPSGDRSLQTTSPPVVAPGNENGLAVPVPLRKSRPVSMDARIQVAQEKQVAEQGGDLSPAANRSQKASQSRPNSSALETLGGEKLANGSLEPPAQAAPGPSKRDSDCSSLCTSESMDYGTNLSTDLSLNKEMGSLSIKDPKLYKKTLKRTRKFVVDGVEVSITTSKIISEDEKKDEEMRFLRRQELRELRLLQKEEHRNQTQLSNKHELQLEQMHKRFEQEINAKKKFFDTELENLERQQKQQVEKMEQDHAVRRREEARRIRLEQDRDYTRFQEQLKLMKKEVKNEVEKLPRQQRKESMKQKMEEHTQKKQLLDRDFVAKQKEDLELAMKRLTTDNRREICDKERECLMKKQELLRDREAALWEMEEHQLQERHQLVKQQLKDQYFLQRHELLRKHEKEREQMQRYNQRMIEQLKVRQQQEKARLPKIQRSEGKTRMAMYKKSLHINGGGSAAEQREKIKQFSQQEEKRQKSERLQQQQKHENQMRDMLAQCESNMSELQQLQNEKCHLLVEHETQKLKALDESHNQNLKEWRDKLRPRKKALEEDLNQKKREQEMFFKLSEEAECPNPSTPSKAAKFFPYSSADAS
As to `CC(=O)O/N=C1\C(=C2\C(=O)Nc3cc(Br)ccc32)Nc2ccccc21`, the residual activity is 99.3%.
On to `O=C(O)/C=C/c1cc(Br)c(Br)c(Br)c1Br`, for which the residual activity was 85.8%.
Same read-out and setting: the same measure for `Cn1cnc2cc3c(Nc4cccc(Br)c4)ncnc3cc21`: 35.8%.

A further experiment has as its target STK3 (human) (UniProt Q13188). The experiment is described as above. The following applies: compound 0.5 µM; ATP 10 µM.
As for `CC(=O)O/N=C1\C(=C2\C(=O)Nc3cc(Br)ccc32)Nc2ccccc21`, the residual activity turned out to be 39.5%.
Consider `O=C(O)/C=C/c1cc(Br)c(Br)c(Br)c1Br`, for which the residual activity came to 91.4%.
Regarding `Cn1cnc2cc3c(Nc4cccc(Br)c4)ncnc3cc21`, the residual activity was determined as 89.9%.

Another experiment concerns the target TXK (human) (UniProt P42681). The experiment is described as above. The following applies: compound 0.5 µM; ATP 10 µM.
`CC(=O)O/N=C1\C(=C2\C(=O)Nc3cc(Br)ccc32)Nc2ccccc21`: the residual activity amounted to 46.4%.
Regarding `O=C(O)/C=C/c1cc(Br)c(Br)c(Br)c1Br`, the residual activity was 98.7%.
With `Cn1cnc2cc3c(Nc4cccc(Br)c4)ncnc3cc21`, the residual activity came to 86.7%.

In the next experiment the target is ULK2 (human) (UniProt Q8IYT8). Described as above. The following applies: compound 0.5 µM; ATP 10 µM.
Turning to `CC(=O)O/N=C1\C(=C2\C(=O)Nc3cc(Br)ccc32)Nc2ccccc21`, the residual activity turned out to be 92.2%.
On to `O=C(O)/C=C/c1cc(Br)c(Br)c(Br)c1Br`, for which the residual activity was 80.3%.
On the same count and under the same terms, the value for `Cn1cnc2cc3c(Nc4cccc(Br)c4)ncnc3cc21` was 74.8%.
